{"source": "paper PMC4542547", "about": "(Scientific Reports, 2015)", "key": {"human α9α10 nAChRs": {"biological_target": "T1, human α9α10 nAChRs (Homo sapiens, UniProt Q9GZZ6+Q9UGM1)", "T1 construct": "expressed in transfected cells; host or cells: Xenopus laevis oocytes (cRNA injection)", "T1 sequence (Q9UGM1 26-479 limits assumed)": "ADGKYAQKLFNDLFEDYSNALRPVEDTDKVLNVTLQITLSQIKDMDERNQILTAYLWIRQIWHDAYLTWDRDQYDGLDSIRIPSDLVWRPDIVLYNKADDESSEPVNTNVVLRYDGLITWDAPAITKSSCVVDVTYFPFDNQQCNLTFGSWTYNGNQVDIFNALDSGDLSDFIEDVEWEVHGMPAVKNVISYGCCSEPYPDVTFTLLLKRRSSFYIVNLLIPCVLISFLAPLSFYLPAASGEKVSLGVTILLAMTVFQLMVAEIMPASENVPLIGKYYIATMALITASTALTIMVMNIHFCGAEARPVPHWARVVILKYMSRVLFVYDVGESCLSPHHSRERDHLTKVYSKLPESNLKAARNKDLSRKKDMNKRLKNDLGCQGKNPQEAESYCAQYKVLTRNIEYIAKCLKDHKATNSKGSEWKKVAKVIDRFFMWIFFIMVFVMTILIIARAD", "T1 sequence (Q9GZZ6 25-450)": "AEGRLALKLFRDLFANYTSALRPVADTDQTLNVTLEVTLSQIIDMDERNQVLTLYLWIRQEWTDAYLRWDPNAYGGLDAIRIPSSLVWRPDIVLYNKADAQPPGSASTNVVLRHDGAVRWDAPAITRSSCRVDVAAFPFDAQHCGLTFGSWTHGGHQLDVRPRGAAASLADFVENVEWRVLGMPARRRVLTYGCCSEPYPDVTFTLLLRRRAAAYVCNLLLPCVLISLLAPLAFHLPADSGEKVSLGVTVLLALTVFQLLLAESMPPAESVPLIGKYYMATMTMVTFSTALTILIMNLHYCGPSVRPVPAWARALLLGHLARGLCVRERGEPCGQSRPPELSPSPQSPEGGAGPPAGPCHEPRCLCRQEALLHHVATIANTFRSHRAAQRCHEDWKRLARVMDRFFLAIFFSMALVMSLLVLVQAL", "assay": "cell-based", "assay_type": "cell-based"}, "[1]": {"tested_on": "recombinant human Cav2.3 calcium channels", "conditions": "read-out: IC50 hCav2.3; cited from earlier work"}, "rat α9α10 nAChRs": {"tested_on": "rat α9α10 nAChRs", "conditions": "cited from earlier work"}, "[2]": {"tested_on": "rat N-type (Cav2.2) calcium channels", "conditions": "read-out: IC50 rN-type (Cav2.2); cited from earlier work"}, "[3]": {"tested_on": "rat N-type (Cav2.2) calcium channels", "assay_type": "cell-based", "conditions": "read-out: IC50 rN-type (Cav2.2)"}, "[4]": {"tested_on": "recombinant human Cav2.3 calcium channels", "assay_type": "cell-based", "conditions": "read-out: IC50 hCav2.3"}, "in vitro": {"assay": "in vitro", "conditions": "male, human, serum"}}, "note": "Several values for one entry are separate records, joined by “and”; a condition that tells them apart may be missing. Identical values can stand only once. Like-named read-outs stand apart in the source and are kept apart here. Positions of bridges follow the written chain, without caps; N, C: chain ends. Residues, ends and D or L forms follow the SMILES beside them."}
{"compound": "CC[C@H](C)[C@@H]1NC(=O)[C@H](CCC(=O)O)NC(=O)[C@@H]2CCCN2C(=O)[C@H](Cc2cnc[nH]2)NC(=O)[C@H](CC(=O)O)NC(=O)[C@H](Cc2ccc(O)cc2)NC(=O)[C@H](CC(N)=O)NC(=O)[C@@H]2CSSC[C@H](NC(=O)CN)C(=O)N[C@@H](CSSC[C@@H](C(N)=O)NC1=O)C(=O)N[C@@H](CO)C(=O)N[C@@H](CC(=O)O)C(=O)N1CCC[C@H]1C(=O)N[C@@H](CCCNC(=N)N)C(=O)N2", "note": "[Vc1.1, reference compound]", "values": [{"measurement": "IC50", "setting": "human α9α10 nAChRs", "value": 320, "unit": "nM"}]}
{"compound": "CC[C@H](C)[C@@H]1NC(=O)[C@H](CCC(=O)O)NC(=O)[C@@H]2CCCN2C(=O)[C@H](Cc2c[nH]cn2)NC(=O)[C@H](CC(=O)O)NC(=O)[C@H](Cc2ccc(O)cc2)NC(=O)[C@H](CC(N)=O)NC(=O)[C@@H]2CSSC[C@@H]3NC(=O)CNC(=O)CNC(=O)CNC(=O)[C@H](C)NC(=O)[C@H](C)NC(=O)CNC(=O)CNC(=O)[C@H](CSSC[C@H](NC3=O)C(=O)N[C@@H](CO)C(=O)N[C@@H](CC(=O)O)C(=O)N3CCC[C@H]3C(=O)N[C@@H](CCCNC(=N)N)C(=O)N2)NC1=O", "note": "[cVc1.1]", "values": [{"measurement": "IC50", "setting": "[1]", "value": 0.29, "unit": "nM"}, {"measurement": "IC50", "setting": "rat α9α10 nAChRs", "value": 765, "unit": "nM"}, {"measurement": "IC50", "setting": "[2]", "value": 0.3, "unit": "nM"}]}
{"compound": "CC[C@H](C)[C@@H]1NC(=O)[C@H](CCC(=O)O)NC(=O)[C@@H]2CCCN2C(=O)[C@H](Cc2c[nH]cn2)NC(=O)[C@H](CC(=O)O)NC(=O)[C@H](Cc2ccc(O)cc2)NC(=O)[C@H](CC(N)=O)NC(=O)[C@H](Cc2ccccc2)NC(=O)[C@H](CCCNC(=N)N)NC(=O)[C@@H]2CCCN2C(=O)[C@H](CC(=O)O)NC(=O)[C@H](CO)NC(=O)[C@@H]2CSSC[C@H](NC1=O)C(=O)NCC(=O)NCC(=O)N[C@@H](C)C(=O)N[C@@H](C)C(=O)NCC(=O)NCC(=O)NCC(=O)N[C@@H](Cc1c[nH]cn1)C(=O)N2", "note": "[hcVc1.1] (cyclo(AAGGGHCSDPRFNYDHPEICGG); disulfide 7-20)", "values": [{"measurement": "IC50", "setting": "[3]", "value": "~0.9 nM and 0.857 nM"}, {"measurement": "IC50", "setting": "[4]", "value": "~0.9 nM and 0.961 nM"}, {"measurement": "lower potency than cVc1.1 at human recombinant α9α10 nAChR currents", "setting": "human α9α10 nAChRs", "value": "two-fold"}]}
{"compound": "CC[C@H](C)[C@@H]1NC(=O)[C@H](CCC(=O)O)NC(=O)[C@@H]2CCCN2C(=O)[C@H](Cc2cnc[nH]2)NC(=O)[C@H](CC(=O)O)NC(=O)[C@H](Cc2ccc(O)cc2)NC(=O)[C@H](CC(N)=O)NC(=O)[C@H](Cc2ccccc2)NC(=O)[C@H](CCCNC(=N)N)NC(=O)[C@@H]2CCCN2C(=O)[C@H](CC(=O)O)NC(=O)[C@H](CO)NC(=O)[C@@H]2CSSC[C@H](NC1=O)C(=O)NCC(=O)NCC(=O)N[C@@H](C)C(=O)N[C@@H](C)C(=O)NCC(=O)NCC(=O)NCC(=O)N[C@@H](Cc1cnc[nH]1)C(=O)N2", "note": "[hcVc1.1] (cyclo(AAGGGHCSDPRFNYDHPEICGG); disulfide 7-20)", "values": [{"measurement": "remaining at 24 h", "setting": "in vitro", "value": "~90", "unit": "%"}]}
